From the OPERA property sets (Mansouri et al. 2018)

**Q.** For `O=c1ccn(C2CC(O)C(CO)O2)c(=O)[nH]1` (stereo not given), which logP is on record?
**A.** -1.51

**Q.** Which logP does the source give for `O=c1[nH]c(=O)n([C@H]2CC[C@@H](CO)O2)cc1Cl` here?
**A.** -1.11

**Q.** With `Nc1ncnc2c1ncn2[C@H]1C[C@H](F)[C@@H](CO)O1` as the molecule, how does the logP read?
**A.** 0.08

**Q.** Which logP does the source give for `Nc1nc(N)c2ncn(C3CC(O)C(CO)O3)c2n1` (stereo not given) here?
**A.** -0.52

**Q.** With `O=c1ccn(C2CC(F)C(CO)O2)c(=O)[nH]1` (stereo not given) as the molecule, how does the logP read?
**A.** -0.49

**Q.** With `Nc1nc(=O)c2ncn([C@H]3CC[C@@H](CO)O3)c2[nH]1` as the molecule, how does the logP read?
**A.** -1.01

**Q.** With `Nc1nc(=O)c2ncn([C@H]3C=C[C@@H](CO)O3)c2[nH]1` as the molecule, how does the logP read?
**A.** -1.21

**Q.** With `O=c1[nH]c(=O)n([C@H]2CC[C@@H](CO)O2)cc1I` as the molecule, how does the logP read?
**A.** -0.61

**Q.** With `[N-]=[N+]=N[C@H]1C[C@H](n2cnc3c(N)ncnc32)O[C@@H]1CO` as the molecule, how does the logP read?
**A.** 0.35

**Q.** For `O=c1[nH]c(=O)n(C2CC(F)C(CO)O2)cc1Br` (stereo not given), which logP is on record?
**A.** -0.04

**Q.** With `Nc1nc(N)c2ncn(C3CC(F)C(CO)O3)c2n1` (stereo not given) as the molecule, how does the logP read?
**A.** 0.05

**Q.** With `O=c1ccn([C@H]2C=C[C@@H](CO)O2)c(=O)[nH]1` as the molecule, how does the logP read?
**A.** -1.07

**Q.** Which logP does the source give for `Nc1nc(=O)c2ncn([C@H]3C[C@H](F)[C@@H](CO)O3)c2[nH]1` here?
**A.** -0.66

**Q.** With `O=c1[nH]c(=O)n(C2CCC(CO)O2)cc1Br` (stereo not given) as the molecule, how does the logP read?
**A.** -0.99

**Q.** Which logP does the source give for `[N-]=[N+]=NC1CC(n2ccc(=O)[nH]c2=O)OC1CO` (stereo not given) here?
**A.** -0.32

**Q.** Which logP does the source give for `O=c1[nH]c(=O)n(C2CC(F)C(CO)O2)cc1I` (stereo not given) here?
**A.** 0.21

**Q.** Which logP does the source give for `[N-]=[N+]=N[C@H]1C[C@H](n2cnc3c(N)nc(N)nc32)O[C@@H]1CO` here?
**A.** 0.24

**Q.** Which logP does the source give for `[N-]=[N+]=NC1C(CO)OC(n2cnc3c(N)ncnc32)C1N=[N+]=[N-]` (stereo not given) here?
**A.** 0.8

**Q.** Which logP does the source give for `O=c1[nH]c(=O)n([C@H]2C[C@H](F)[C@@H](CO)O2)cc1Cl` here?
**A.** -0.17

**Q.** Which logP does the source give for `Cc1cn([C@H]2C[C@H](F)[C@@H](CO)O2)c(=O)[nH]c1=O` here?
**A.** -0.28
